Assay results: ChEMBL document CHEMBL4673218, “Kojyl cinnamate esters are peroxisome proliferator-activated receptor α/γ dual agonists” (Bioorg Med Chem, 2018)
Active and inactive are the calls of the source. No cut-off for these calls is given here.

Tests used:
[1] = molecular target: T1, Peroxisome proliferator-activated receptor gamma (Homo sapiens, UniProt P37231); assay: (§1) Binding affinity to human recombinant PPARgamma by Cheng-Prusoff equation based competitive binding TR-FRET assay
T1 sequence (P37231 whole entry): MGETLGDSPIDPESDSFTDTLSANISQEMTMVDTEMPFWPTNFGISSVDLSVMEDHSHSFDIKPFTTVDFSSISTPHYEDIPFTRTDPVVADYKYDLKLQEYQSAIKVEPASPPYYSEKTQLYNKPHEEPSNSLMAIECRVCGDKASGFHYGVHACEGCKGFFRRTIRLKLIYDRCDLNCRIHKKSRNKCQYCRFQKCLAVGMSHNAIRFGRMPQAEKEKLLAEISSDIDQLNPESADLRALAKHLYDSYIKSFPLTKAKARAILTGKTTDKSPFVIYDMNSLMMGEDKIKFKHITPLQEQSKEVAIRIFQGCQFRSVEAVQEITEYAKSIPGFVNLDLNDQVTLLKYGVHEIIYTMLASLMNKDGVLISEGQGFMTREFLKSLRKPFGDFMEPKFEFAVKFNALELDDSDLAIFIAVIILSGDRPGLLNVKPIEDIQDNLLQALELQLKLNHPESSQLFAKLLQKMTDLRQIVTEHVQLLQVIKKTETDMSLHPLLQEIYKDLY

[2] = molecular target: T2, Peroxisome proliferator-activated receptor gamma (Homo sapiens) (UniProt P37231); assay: as §1; conditions: filed as agonist
T2 sequence (whole entry): T1 sequence (P37231 whole entry)

[3] = molecular target: T3, PPAR alpha/gamma (Homo sapiens) (UniProt P37231+Q07869); assay: Agonist activity at PPARalpha/PPARgamma in human NHEK cells assessed as upregulation of FADS1 mRNA at 10 uM incubated for 3 days by qRT-PCR analysis; format: cell-based; conditions: filed as agonist, time 3.0 day
[4] = molecular target: T2, Peroxisome proliferator-activated receptor gamma (Homo sapiens); assay: Binding affinity to human recombinant PPARgamma at 30 uM by competitive binding based TR-FRET assay relative to control; conditions: filed as agonist
[5] = molecular target: T3, PPAR alpha/gamma (Homo sapiens); assay: Agonist activity at PPARalpha/PPARgamma in human AT-MSC cells assessed as upregulation of SCD1 mRNA at 10 uM incubated for 3 days by qRT-PCR analysis; format: cell-based; conditions: Adipose tissue derived mesenchymal stem cell, filed as agonist, time 3.0 day
[6] = molecular target: T3, PPAR alpha/gamma (Homo sapiens); assay: Agonist activity at PPARalpha/PPARgamma in human AT-MSC cells assessed as upregulation of FASN mRNA at 10 uM incubated for 3 days by qRT-PCR analysis; format: cell-based; conditions: Adipose tissue derived mesenchymal stem cell, filed as agonist, time 3.0 day
[7] = molecular target: T4, Glucocorticoid receptor (Homo sapiens) (UniProt P04150); assay: Binding affinity to human glucocorticoid receptor at 30 uM by competitive binding based TR-FRET assay
T4 sequence (whole entry): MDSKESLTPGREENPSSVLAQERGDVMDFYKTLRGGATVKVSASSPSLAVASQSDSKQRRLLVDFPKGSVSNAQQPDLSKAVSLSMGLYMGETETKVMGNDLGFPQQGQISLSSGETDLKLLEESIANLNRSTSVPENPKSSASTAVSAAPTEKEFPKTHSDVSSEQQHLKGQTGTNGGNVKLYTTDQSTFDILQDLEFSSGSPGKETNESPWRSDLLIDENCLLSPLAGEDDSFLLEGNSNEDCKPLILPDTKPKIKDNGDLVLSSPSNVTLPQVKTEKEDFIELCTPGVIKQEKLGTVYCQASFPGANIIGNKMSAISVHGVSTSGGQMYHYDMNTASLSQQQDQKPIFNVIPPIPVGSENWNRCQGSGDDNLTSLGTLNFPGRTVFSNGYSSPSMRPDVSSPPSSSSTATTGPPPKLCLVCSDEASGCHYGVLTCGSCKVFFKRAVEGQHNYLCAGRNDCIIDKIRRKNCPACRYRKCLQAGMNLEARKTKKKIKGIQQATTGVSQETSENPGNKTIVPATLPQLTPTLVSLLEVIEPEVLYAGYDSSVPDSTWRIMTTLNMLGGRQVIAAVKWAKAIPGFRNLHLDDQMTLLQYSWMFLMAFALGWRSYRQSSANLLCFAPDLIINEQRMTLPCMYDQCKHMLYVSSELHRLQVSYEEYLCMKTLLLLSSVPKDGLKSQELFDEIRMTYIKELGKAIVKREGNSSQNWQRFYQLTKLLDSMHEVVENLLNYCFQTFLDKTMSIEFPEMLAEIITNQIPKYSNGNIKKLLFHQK

[8] = system: Adipose tissue derived mesenchymal stem cell; assay: Induction of adipogenesis in human AT-MSC cells assessed as increase in intracellular lipid accumulation at 30 uM in IDX medium incubated for 5 days by Oil Red O staining based inverted phase microscopy relative to IDX control; format: functional; conditions: time 5.0 day
[9] = molecular target: T3, PPAR alpha/gamma (Homo sapiens); assay: Agonist activity at PPARalpha/PPARgamma in human AT-MSC cells assessed as upregulation of adiponectin mRNA at 10 uM incubated for 3 days by qRT-PCR analysis; format: cell-based; conditions: Adipose tissue derived mesenchymal stem cell, filed as agonist, time 3.0 day
NHEK [10] = assay: Inhibition of UVB-induced PTGS2 mRNA in human NHEK cells at 10 uM incubated for 24 hrs by qRT-PCR analysis; format: functional, cell-based
[11] = molecular target: T3, PPAR alpha/gamma (Homo sapiens); assay: Agonist activity at PPARalpha/PPARgamma in human AT-MSC cells assessed as upregulation of ACACB mRNA at 10 uM incubated for 3 days by qRT-PCR analysis; format: cell-based; conditions: Adipose tissue derived mesenchymal stem cell, filed as agonist, time 3.0 day
[12] = molecular target: T5, Peroxisome proliferator-activated receptor alpha (Homo sapiens) (UniProt Q07869); assay: Binding affinity to human recombinant PPARalpha at 30 uM by competitive binding based TR-FRET assay relative to control; conditions: filed as agonist
T5 sequence (whole entry): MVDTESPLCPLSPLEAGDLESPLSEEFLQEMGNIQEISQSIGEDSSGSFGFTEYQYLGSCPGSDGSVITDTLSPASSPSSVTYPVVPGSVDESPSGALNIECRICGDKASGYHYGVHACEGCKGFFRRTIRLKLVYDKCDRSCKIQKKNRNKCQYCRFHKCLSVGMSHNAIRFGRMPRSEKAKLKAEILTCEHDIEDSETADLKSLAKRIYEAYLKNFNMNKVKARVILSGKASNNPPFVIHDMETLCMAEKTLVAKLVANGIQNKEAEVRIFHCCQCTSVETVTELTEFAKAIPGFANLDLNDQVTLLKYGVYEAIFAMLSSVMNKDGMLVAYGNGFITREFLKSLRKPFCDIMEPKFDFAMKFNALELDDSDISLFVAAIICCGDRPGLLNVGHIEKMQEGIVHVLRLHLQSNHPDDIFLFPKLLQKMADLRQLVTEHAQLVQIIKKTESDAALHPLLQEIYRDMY

NHEK [13] = assay: Inhibition of UVB-induced MMP1 level in human NHEK cells at 10 uM incubated for 24 hrs by ELISA; format: functional, cell-based
[14] = molecular target: T3, PPAR alpha/gamma (Homo sapiens); assay: Agonist activity at PPARalpha/PPARgamma in human AT-MSC cells assessed as upregulation of HMGCR mRNA at 10 uM incubated for 3 days by qRT-PCR analysis; format: cell-based; conditions: Adipose tissue derived mesenchymal stem cell, filed as agonist, time 3.0 day
NHEK [15] = assay: Inhibition of UVB-induced PGE2 level in human NHEK cells at 10 uM incubated for 24 hrs by ELISA; format: functional, cell-based

COc1ccc(OC)c(/C=C/C(=O)OCc2cc(=O)c(O)co2)c1
Ki [1]: 7 µM | Activity [2]: Dose-dependent effect | Activity [3]: Active | Activity [4]: 77% | Activity [5]: Active | Activity [6]: Active | Activity [7]: inactive | Activity [8]: Active | Activity [9]: Active | inhibition (NHEK [10]): Active | Activity [11]: Active | Activity [12]: 59% | inhibition (NHEK [13]): Active | Activity [14]: Active | inhibition (NHEK [15]): Active
